Test results published in the supplement of paper PMC5908809.

Tests used:
SNK-6 (IL-2 2.5 ng/mL) [1] = assay: drug sensitivity score (DSS) (DSS units); higher = more sensitive; extreme values may be limits of the assay; conditions: 72 h
KAI3 (IL-2 2.5 ng/mL) [2] = assay: as above; conditions: 72 h
NK-92 (IL-2 2.5 ng/mL) [3] = assay: as above; conditions: 72 h
[4] = tested on: normal primary NK cells, pool 1 (3 donors), resting (IL-2 0 ng/mL); assay: as above; conditions: 72 h
NKL (IL-2 2.5 ng/mL) [5] = assay: as above; conditions: 72 h
DERL-7 (IL-2 2.5 ng/mL) [6] = assay: as above; conditions: 72 h
IMC-1 (IL-2 20 ng/mL) [7] = assay: as above; conditions: 72 h
YT (IL-2 2.5 ng/mL) [8] = assay: as above; conditions: 72 h
[9] = tested on: normal primary NK cells, pool 1 (3 donors) (IL-2 2.5 ng/mL); assay: as above; conditions: 72 h
KHYG-1 (IL-2 2.5 ng/mL) [10] = assay: as above; conditions: 72 h
NK-YS (IL-2 2.5 ng/mL) [11] = assay: as above; conditions: 72 h
[12] = tested on: normal primary NK cells, pool 2 (3 donors) (IL-2 2.5 ng/mL); assay: as above; conditions: 72 h
[13] = tested on: normal primary NK cells, pool 3 (3 donors) (IL-2 2.5 ng/mL); assay: as above; conditions: 72 h
[14] = tested on: normal NK cells expanded with K562-aAPC; assay: as above; conditions: 72 h; IL-2 2.5 ng/mL
Procedure: (§1)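 Drug sensitivity and resistance testing on K562-aAPC-expanded normal NK cells: 5 concentrations (10-fold steps over a 10,000-fold range), 72 h at 37 °C, viability by CellTiter-Glo normalised to DMSO and benzethonium chloride controls; DSS from the fitted curve.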

[15] = tested on: normal NK cells expanded with K562-aAPC; assay: percent inhibition of viability; higher = more inhibition; conditions: 72 h, IL-2 2.5 ng/mL
Procedure: as §1

SNK-6 (IL-2 2.5 ng/mL) [16] = assay: as above; conditions: 72 h
KAI3 (IL-2 2.5 ng/mL) [17] = assay: as above; conditions: 72 h
NK-92 (IL-2 2.5 ng/mL) [18] = assay: as above; conditions: 72 h
[19] = tested on: normal primary NK cells, pool 1 (3 donors), resting (IL-2 0 ng/mL); assay: as above; conditions: 72 h
NKL (IL-2 2.5 ng/mL) [20] = assay: as above; conditions: 72 h
DERL-7 (IL-2 2.5 ng/mL) [21] = assay: as above; conditions: 72 h
IMC-1 (IL-2 20 ng/mL) [22] = assay: as above; conditions: 72 h
YT (IL-2 2.5 ng/mL) [23] = assay: as above; conditions: 72 h
[24] = tested on: normal primary NK cells, pool 1 (3 donors) (IL-2 2.5 ng/mL); assay: as above; conditions: 72 h
KHYG-1 (IL-2 2.5 ng/mL) [25] = assay: as above; conditions: 72 h
NK-YS (IL-2 2.5 ng/mL) [26] = assay: as above; conditions: 72 h
[27] = tested on: normal primary NK cells, pool 2 (3 donors) (IL-2 2.5 ng/mL); assay: as above; conditions: 72 h
[28] = tested on: normal primary NK cells, pool 3 (3 donors) (IL-2 2.5 ng/mL); assay: as above; conditions: 72 h

CN1CCC(COc2cnc(-c3cccc(Cn4nc(-c5cccc(C#N)c5)ccc4=O)c3)nc2)CC1 (max concentration tested 1000 nM)
Conditions	drug sensitivity score
DERL-7 (IL-2 2.5 ng/mL) [6]	2.76
IMC-1 (IL-2 20 ng/mL) [7]	0
KAI3 (IL-2 2.5 ng/mL) [2]	0
KHYG-1 (IL-2 2.5 ng/mL) [10]	0.39
NK-92 (IL-2 2.5 ng/mL) [3]	0
NK-YS (IL-2 2.5 ng/mL) [11]	0
NKL (IL-2 2.5 ng/mL) [5]	0.35
SNK-6 (IL-2 2.5 ng/mL) [1]	1.09
YT (IL-2 2.5 ng/mL) [8]	0
[4]	0
[9]	0
[12]	0
[13]	0
[14]	0

percent inhibition of viability [%]
Conditions	0.1 nM	1 nM	10 nM	100 nM	1000 nM
DERL-7 (IL-2 2.5 ng/mL) [21]	-4.25	-4.18	3.15	4.81	39.5
IMC-1 (IL-2 20 ng/mL) [22]	-6.71	-2.19	-0.81	-1.98	-3.26
KAI3 (IL-2 2.5 ng/mL) [17]	-0.84	-8.6	-8.84	-7.75	-3.69
KHYG-1 (IL-2 2.5 ng/mL) [25]	0.03	-2.13	-6.37	1.52	15.3
NK-92 (IL-2 2.5 ng/mL) [18]	-7.1	-4.45	1.23	-11.4	6.42
NK-YS (IL-2 2.5 ng/mL) [26]	-1.64	-6.91	-7.12	-5.26	-5.69
NKL (IL-2 2.5 ng/mL) [20]	4.34	-14.9	-8.56	-9.54	20.4
SNK-6 (IL-2 2.5 ng/mL) [16]	10.8	3.77	-9.85	14	13.7
YT (IL-2 2.5 ng/mL) [23]	4	0.64	-1.46	-0.52	-0.42
[15]	-4.81	-10.8	-1.01	-5.56	4.27
[19]	-5.12	-27.4	-19.6	3.81	3.64
[24]	-7	-6.88	-13.8	1.64	4.06
[27]	-17.1	4.11	-9.87	-10	-13.3
[28]	-8.96	-8.97	-7.75	-16	-13.7

Cc1ccc(F)c(NC(=O)Nc2ccc(-c3cccc4[nH]nc(N)c34)cc2)c1 [Linifanib] (max concentration tested 1000 nM)
Conditions	drug sensitivity score
DERL-7 (IL-2 2.5 ng/mL) [6]	0
IMC-1 (IL-2 20 ng/mL) [7]	0
KAI3 (IL-2 2.5 ng/mL) [2]	0.91
KHYG-1 (IL-2 2.5 ng/mL) [10]	0
NK-92 (IL-2 2.5 ng/mL) [3]	0.9
NK-YS (IL-2 2.5 ng/mL) [11]	0
NKL (IL-2 2.5 ng/mL) [5]	1.69
SNK-6 (IL-2 2.5 ng/mL) [1]	0
YT (IL-2 2.5 ng/mL) [8]	0
[4]	3.83
[9]	0.05
[12]	0
[13]	0
[14]	0

percent inhibition of viability [%]
Conditions	0.1 nM	1 nM	10 nM	100 nM	1000 nM
DERL-7 (IL-2 2.5 ng/mL) [21]	-3.48	1.81	3.09	2.4	-1.99
IMC-1 (IL-2 20 ng/mL) [22]	-6.64	-7.44	-3.21	-3.37	1.06
KAI3 (IL-2 2.5 ng/mL) [17]	-0.03	-0.25	-3.05	7.49	15.8
KHYG-1 (IL-2 2.5 ng/mL) [25]	-6.67	-7.43	-4.03	-0.13	5.26
NK-92 (IL-2 2.5 ng/mL) [18]	-24.1	-23.8	-13.7	-0.86	25.2
NK-YS (IL-2 2.5 ng/mL) [26]	-6.27	-8.05	-4.24	4.76	5.97
NKL (IL-2 2.5 ng/mL) [20]	-6.64	-0.61	0.44	14.6	17.6
SNK-6 (IL-2 2.5 ng/mL) [16]	-2.9	19.3	2.79	-3.57	-1.81
YT (IL-2 2.5 ng/mL) [23]	-5.45	-5.75	-1.04	3.95	7.04
[15]	-6.15	-1.69	-7.22	-1.27	8.03
[19]	-0.38	0.34	17.6	14.6	9.36
[24]	-6.2	0.66	14.2	7.19	6.85
[27]	-14	-8.34	-3.37	7.22	4.22
[28]	-14.8	-8.58	1.59	7.84	2.88
